# Molecular target: T1, PPARδ (Homo sapiens, UniProt Q03181)
# T1 sequence (Q03181 171-441 limits assumed): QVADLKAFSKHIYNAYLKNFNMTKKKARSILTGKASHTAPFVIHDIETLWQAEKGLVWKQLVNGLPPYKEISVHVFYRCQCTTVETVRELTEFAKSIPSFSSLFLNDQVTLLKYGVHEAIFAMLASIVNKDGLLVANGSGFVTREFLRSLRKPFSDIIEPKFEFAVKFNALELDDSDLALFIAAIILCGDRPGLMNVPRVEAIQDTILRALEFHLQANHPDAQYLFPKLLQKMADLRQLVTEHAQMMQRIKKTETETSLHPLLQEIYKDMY
# Experiment: Transfection Assay for PPARδ Receptors (PPAR-Gal4 receptor / Gal4-Luciferase Reporter, HEK293 cells)
# Type: cell-based
# Settings: bracketed values
# Method: Transfection Assay for PPARδ Receptors
# HEK293 cells were grown in DMEM/F-12 Media supplemented with 10% FBS and glutamine (GIBCOBRL). The cells were co-transfected with DNA for PPAR-Gal4 receptor and Gal4-Luciferase Reporter using the DMRIE-C Reagent. On the following day, the DNA-containing medium were replaced with 5% Charcoal treated FBS growth medium. After six hours, cells were seeded in 96 well plate and incubated at 37° C. in CO2 incubator overnight. Cells were challenged by test compounds and incubated for 24 hours at 37° C. in 5% CO2 incubator. Luciferase activity was assayed using the Steady-Glo Luciferase Assay Kit from Promega. DMRIE-C Reagent was purchased from GIBCO Cat. No. 10459-014. OPTI-MEM I Reduced Serum Medium was purchased from GIBCO Cat. No. 31985. Steady-Glo Luciferase Assay Kit was obtained from Promega Part# E254B.
row,EC50 [µM],Structure (SMILES)
1,> 3,"CCN(C(=O)Nc1ccc(C(C)(C)C)cc1)C1CCc2cc(SC(C)(C)C(=O)O)c(OC)cc2C1 (stereo not shown) [Example 49, 2-{6-[3-(4-tert-Butylphenyl)1-ethylureido]-3-methoxy-5,6,7,8-tetrahydronaphthalen-2-ylsulfanyl}-2-methylpropionic acid]"

# Same assay, conditions: fold induction, unbracketed values; PPARδ standard FI = 36.1
row,Structure (SMILES),PPARδ FI
1,"CCCCCN(C(=O)Nc1ccc(N(C)C)cc1)C1Cc2ccc(SC(C)(C)C(=O)O)cc2C1 (stereo not shown) [Example 9, 2-{2-[3-(4-Dimethylaminophenyl)-1-pentylureido]indan-5-ylsulfanyl}-2-methylpropionic acid]",1.0
2,"CCN(C(=O)Nc1cccc(OC(F)(F)F)c1)C1Cc2ccc(SC(C)(C)C(=O)O)cc2C1 (stereo not shown) [Example 26, 2-{2-[1-Ethyl-3-(3-trifluoromethoxyphenyl)ureido]indan-5-ylsulfanyl}-2-methylpropionic acid]",2.1
3,"CCN(C(=O)Nc1ccc(C(C)C)cc1)C1Cc2ccc(SC(C)(C)C(=O)O)cc2C1 (stereo not shown) [Example 6, 2-{2-[1-Ethyl-3-(4-isopropylphenyl)ureido]indan-5-ylsulfanyl}-2-methylpropionic acid]",3.6
4,"CCCCCCN(C(=O)Nc1ccc(SC(F)(F)F)cc1)C1Cc2ccc(SC(C)(C)C(=O)O)cc2C1 (stereo not shown) [Example 15, 2-Methyl-2-{2-[1-hexyl-3-(4-trifluoromethylsulfanylphenyl)ureido]indan-5-ylsulfanyl}propionic acid]",1.2
5,"C=CCCCN(C(=O)Nc1ccc(OC(F)(F)F)cc1)C1Cc2ccc(SC(C)(C)C(=O)O)cc2C1 (stereo not shown) [Example 19, 2-Methy-2-{2-[1-pent-4-enyl-3-(4-trifluoromethoxyphenyl)ureido]indan-5-ylsulfanyl}propionic acid]",1.4
6,"CCCCCN(C(=O)Nc1ccc(SC(F)(F)F)cc1)C1Cc2ccc(SC(C)(C)C(=O)O)cc2C1 (stereo not shown) [Example 5, 2-Methyl-2-{2-[1-pentyl-3-(4-trifluoromethylsulfanylphenyl)ureido]indan-5-ylsulfanyl}propionic acid]",2.5
7,"CCN(C(=O)Nc1ccc(N(C)C)cc1)C1Cc2ccc(SC(C)(C)C(=O)O)cc2C1 (stereo not shown) [Example 7, 2-{2-[3-(4-Dimethylaminophenyl)-1-ethylureido]indan-5-ylsulfanyl}-2-methylpropionic acid]",0.8
8,"CCN(C(=O)Nc1ccc(OC(F)(F)F)c(Br)c1)C1Cc2ccc(SC(C)(C)C(=O)O)cc2C1 (stereo not shown) [Example 25, 2-{2-[3-(3-Bromo-4-trifluoromethoxyphenyl)-1-ethylureido]indan-5-ylsulfanyl}-2-methylpropionic acid]",4.5

# The remaining lines, values ahead:
row,PPARδ FI,Structure (SMILES)
1,6.0,"CCCN(C(=O)Nc1ccc(OC(F)(F)F)cc1)C1CCc2ccc(SC(C)(C)C(=O)O)cc2C1 (stereo not shown) [Example 46, 2-Methyl-2-{7-[1-propyl-3-(4-trifluoromethoxyphenyl)ureido}-5,6,7,8-tetrahydronaphthalen-2-ylsulfanyl}propionic acid]"
2,5.6,"CCCN(C(=O)Nc1ccc(C(F)(F)F)cc1)C1Cc2ccc(SC(C)(C)C(=O)O)cc2C1 (stereo not shown) [Example 35, 2-Methyl-2-{2-[1-propyl-3-(4-trifluoromethylphenyl)ureido]indan-5-ylsulfanyl}-propionic acid]"
3,9.3,"CCCCCN(C(=O)Nc1ccc2ccccc2c1)C1Cc2ccc(SC(C)(C)C(=O)O)cc2C1 (stereo not shown) [Example 39, 2-Methyl-2-[2-(3-naphthalen-2-yl-1-pentylureido)indan-5-ylsulfanyl]propionic acid]"
4,1.9,"CC(C)(Sc1ccc2c(c1)CC(N(CCCC1CCCC1)C(=O)Nc1ccccc1)C2)C(=O)O (stereo not shown) [Example 37, 2-{2-[1-(3-Cyclopentylpropyl)-3-phenylureido]indan-5-ylsulfanyl}-2-methylpropionic acid]"
5,1.5,"CCCN(C(=O)Nc1ccc(OC)cc1)C1Cc2ccc(SC(C)(C)C(=O)O)cc2C1 (stereo not shown) [Example 32, 2-{2-[3-(4-Methoxyphenyl)-1-propylureido]indan-5-ylsulfanyl}-2-methylpropionic acid]"
6,0.8,"CCCN(C(=O)Nc1cc(C)cc(C)c1)C1Cc2ccc(SC(C)(C)C(=O)O)cc2C1 (stereo not shown) [Example 33, 2-{2-[3-(3,5-Dimethylphenyl)-1-propylureido]indan-5-ylsulfanyl}-2-methylpropionic acid]"
7,8.2,"CC(C)(Sc1ccc2c(c1)CC(N(CCCC1CCCC1)C(=O)Nc1ccc(OC(F)(F)F)cc1)C2)C(=O)O (stereo not shown) [Example 28, 2-{2-[1-(3-Cyclopentylpropyl)-3-(4-trifluoromethoxyphenyl)ureido]indan-5-ylsulfanyl}-2-methylpropionic acid]"

# Molecular target: T2, PPARγ (Homo sapiens, UniProt P37231)
# T2 construct: Following the challenge of the preadipocytes, cells may be lysed with lysis buffer; endogenous in cells; host or cells: preadipocytes
# T2 sequence (P37231 1-505): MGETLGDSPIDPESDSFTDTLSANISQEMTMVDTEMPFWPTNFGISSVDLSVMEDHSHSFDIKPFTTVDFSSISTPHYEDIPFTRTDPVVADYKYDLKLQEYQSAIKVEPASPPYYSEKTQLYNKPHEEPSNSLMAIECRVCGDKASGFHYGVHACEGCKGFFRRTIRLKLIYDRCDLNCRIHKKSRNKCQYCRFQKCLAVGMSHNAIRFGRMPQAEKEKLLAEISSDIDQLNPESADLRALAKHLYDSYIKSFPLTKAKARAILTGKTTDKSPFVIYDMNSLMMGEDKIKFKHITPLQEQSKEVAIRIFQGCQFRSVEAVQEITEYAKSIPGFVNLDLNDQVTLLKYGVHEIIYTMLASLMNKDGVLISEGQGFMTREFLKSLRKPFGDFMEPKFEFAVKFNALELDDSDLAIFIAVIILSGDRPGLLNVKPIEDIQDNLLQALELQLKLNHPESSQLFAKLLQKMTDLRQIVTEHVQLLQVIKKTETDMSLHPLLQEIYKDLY
# Experiment: aP2 Assay for PPAR Gamma Agonists (bDNA aP2 mRNA, preadipocytes)
# Type: cell-based
# Settings: fold induction, unbracketed values; PPARγ standard FI = 70.3
# Description: aP2 Assay for PPAR Gamma Agonists
# The procedure is described in detail in Burris et al., Molecular Endocrinology 1999, 13:410, which is hereby incorporated by reference in its entirety, and aP2 assay results of agonist intrinsic activity may be presented as fold increase over vehicle in induction of aP2 mRNA production.
# Twenty-four hours after the initial seeding of the 96-well plates by hand (around 20,000/well), the differentiation assay may be initiated. Medium may be removed and replaced with 150 μl of differentiation medium containing vehicle (DMSO) or test compounds. Cells may be returned to incubator for 24 hours culture. At the termination of the challenge, medium may be removed and 100 ul of lysis buffer may be added to initiate the bDNA aP2 mRNA assay. The branched DNA assay may be performed according to the manufacturer's protocol (Bayer Diagnostics; Emeryville, Calif.). Result may be expressed as the fold increase of aP2 mRNA production activated over vehicle controls. EC50's and Emax may be determined by non-linear regression with a sigmoidal fit curve.
# Following the challenge of the preadipocytes, cells may be lysed with lysis buffer (Bayer Diagnostics) containing the aP2 oligonucleotides. After a 15 minute incubation at 53° C. or 30 minutes at 37° C. incubator, 70 ul of the lysis buffer from each well may be added to a corresponding capture well (preincubated with 70 ul of blocking buffer (Bayer Diagnostics)). The capture plate may be incubated overnight at 53° C. in a plate incubator (Bayer Diagnostics). After this incubation, the bDNA and labeled probes may be annealed as directed by the manufacturer. Following a 30-minute incubation with the luminescent alkaline phosphatase substrate, dioxitane, the luminescence may be quantitated in a Dynex MLX microtiter plate luminometer. Oligonucleotide probes designed to anneal to the aP2 mRNA and function in the bDNA mRNA detection system are designed with ProbeDesigner software (Bayer Diagnostics). This software package analyzes a target sequence of interest with a series of algorithms in order to determine which regions of the sequence can perform as locations for capture, label, or spacer probe annealing. The sequences of the oligonucleotides are as follows: […]
row,PPARγ FI,Structure (SMILES)
1,0.31,"CC(C)(Sc1ccc2c(c1)CC(NC(=O)Nc1ccc(OC(F)(F)F)cc1)C2)C(=O)O (stereo not shown) [Example 18, 2-Methyl-2-{2-[3-(4-trifluoromethoxyphenyl)ureido]indan-5-ylsulfanyl}propionic acid]"
2,11,"CCCCCN(C(=O)Nc1ccc(-c2ccccc2)cc1)C1Cc2ccc(SC(C)(C)C(=O)O)cc2C1 (stereo not shown) [Example 12, 2-[2-(3-Biphenyl-4-yl-1-pentylureido)indan-5-ylsulfanyl]-2-methylpropionic acid]"
3,2.9,"CCCCCN(C(=O)Nc1ccc(N(C)C)cc1)C1Cc2ccc(SC(C)(C)C(=O)O)cc2C1 (stereo not shown) [Example 9, 2-{2-[3-(4-Dimethylaminophenyl)-1-pentylureido]indan-5-ylsulfanyl}-2-methylpropionic acid]"
4,0.05,"CC(C)CCN(C(=O)Nc1ccc(C(C)C)cc1)C1Cc2ccc(SC(C)(C)C(=O)O)cc2C1 (stereo not shown) [Example 21, 2-{2-[3-(4-Isopropylphenyl)-1-(3-methylbutyl)ureido]indan-5-ylsulfanyl}-2-methylpropionic acid]"
5,1.9,"CCN(C(=O)Nc1ccc(C(C)C)cc1)C1Cc2ccc(SC(C)(C)C(=O)O)cc2C1 (stereo not shown) [Example 6, 2-{2-[1-Ethyl-3-(4-isopropylphenyl)ureido]indan-5-ylsulfanyl}-2-methylpropionic acid]"
6,3.7,"CCN(C(=O)Nc1ccc(SC(F)(F)F)cc1)C1Cc2ccc(SC(C)(C)C(=O)O)cc2C1 (stereo not shown) [Example 4, 2-{2-[1-Ethyl-3-(4-trifluoromethylsulfanylphenyl)ureido]indan-5-ylsulfanyl}-2-methylpropionic acid]"
7,0.44,"CC(C)CCN(C(=O)Nc1ccc(OC(F)(F)F)cc1)C1Cc2ccc(SC(C)(C)C(=O)O)cc2C1 (stereo not shown) [Example 20, 2-Methyl-2-{2-[1-(3-methylbutyl)-3-(4-trifluoromethoxyphenyl)ureido]indan-5-ylsulfanyl}-2-methylpropionic acid]"
8,4.0,"CCCCCN(C(=O)Nc1ccc(SC(F)(F)F)cc1)C1Cc2ccc(SC(C)(C)C(=O)O)cc2C1 (stereo not shown) [Example 5, 2-Methyl-2-{2-[1-pentyl-3-(4-trifluoromethylsulfanylphenyl)ureido]indan-5-ylsulfanyl}propionic acid]"
9,0,"CCN(C(=O)Nc1ccc(N(C)C)cc1)C1Cc2ccc(SC(C)(C)C(=O)O)cc2C1 (stereo not shown) [Example 7, 2-{2-[3-(4-Dimethylaminophenyl)-1-ethylureido]indan-5-ylsulfanyl}-2-methylpropionic acid]"
10,1.2,"CCCCCCN(C(=O)Nc1ccc(C(C)C)cc1)C1Cc2ccc(SC(C)(C)C(=O)O)cc2C1 (stereo not shown) [Example 13, 2-{2-[3-(4-Isopropylphenyl)-1-hexylureido]indan-5-ylsulfanyl}-2-methylpropionic acid]"
11,0.43,"CCCCN(C(=O)Nc1ccc(SC(F)(F)F)cc1)C1Cc2ccc(SC(C)(C)C(=O)O)cc2C1 (stereo not shown) [Example 17, 2-Methyl-2-{2-[1-butyl-3-(4-trifluoromethylsulfanylphenyl)ureido]indan-5-ylsulfanyl}propionic acid]"
12,0.37,"CCCN(C(=O)Nc1ccc(OC(F)(F)F)cc1)C1Cc2ccc(SC(C)(C)C(=O)O)cc2C1 (stereo not shown) [Example 16, 2-Methyl-2-{2-[1-propyl-3-(4-trifluoromethoxyphenyl)ureido]indan-5-ylsulfanyl}propionic acid]"

# Source: patent US20060094786A1, “Treating syndrome X with substituted tetralins and indanes” (priority 2002, published 2006)
